In ChEMBL document CHEMBL5053499, “Indole Alkaloids from a Soil-Derived Clonostachys rosea” (J Nat Prod, 2021):
Converted amounts (≈) assume the structure as drawn. The source made the active and inactive calls. No cut-off for these calls is given here.

How the values were obtained:
HepG2 = experiment: Cytotoxicity against human HepG2 cells assessed as reduction in cell viability measured after 48 hrs by CCK8 assay; type: functional, cell-based; conditions: HepG2, 48 h
[1] = test system: Pseudomonas syringae pv. actinidiae; experiment: Antimicrobial activity against Pseudomonas syringae pv. actinidiae assessed as reduction in bacterial growth measured at 100 ug/ml after 48 hrs by double dilution method; type: functional; conditions: dose 100.0 µg/ml
Bacillus cereus = experiment: Antimicrobial activity against Bacillus cereus assessed as reduction in bacterial growth at 100 ug/ml measured after 48 hrs by double dilution method; type: functional, organism-based; conditions: dose 100.0 µg/ml
Escherichia coli = experiment: Antimicrobial activity against Escherichia coli assessed as reduction in bacterial growth at 100 ug/ml measured after 48 hrs by double dilution method; type: functional, organism-based; conditions: dose 100.0 µg/ml
Ralstonia solanacearum = experiment: Antimicrobial activity against Ralstonia solanacearum assessed as reduction in bacterial growth at 100 ug/ml measured after 48 hrs by double dilution method; type: functional, organism-based; conditions: dose 100.0 µg/ml
Pseudomonas sp. [2] = experiment: Antimicrobial activity against Pseudomonas sp. assessed as reduction in bacterial growth at 100 ug/ml measured after 48 hrs by double dilution method; type: functional, organism-based; conditions: dose 100.0 µg/ml
Bacillus subtilis = experiment: Antimicrobial activity against Bacillus subtilis assessed as reduction in bacterial growth at 100 ug/ml measured after 48 hrs by double dilution method; type: functional; conditions: for Activity: dose 100.0 µg/ml
HeLa = experiment: Cytotoxicity against human HeLa cells assessed as reduction in cell viability measured after 48 hrs by CCK8 assay; type: functional, cell-based
Staphylococcus aureus = experiment: Antimicrobial activity against Staphylococcus aureus assessed as reduction in bacterial growth at 100 ug/ml measured after 48 hrs by double dilution method; type: functional, organism-based; conditions: dose 100.0 µg/ml
Alternaria alternata = experiment: Antifungal activity against Alternaria alternata assessed as inhibition of fungal growth measured after 72 hrs by double dilution method; type: functional, organism-based
Fusarium oxysporum = experiment: Antifungal activity against Fusarium oxysporum assessed as inhibition of fungal growth measured after 72 hrs by double dilution method; type: functional
Phytophthora capsici = experiment: Antifungal activity against Phytophthora capsici assessed as inhibition of fungal growth measured after 72 hrs by double dilution method; type: functional, organism-based
Pseudomonas sp. [3] = experiment: Antimicrobial activity against Pseudomonas sp. assessed as reduction in bacterial growth measured after 48 hrs by double dilution method; type: functional

In the case of `CS[C@@]1(Cc2c[nH]c3ccccc23)NC(=O)[C@H]([C@@H](C)O)NC1=O`, the IC50 (HepG2) is reported as over 20 µM, the Activity [1] is reported as “inactive” and the Activity (Bacillus cereus) is reported as “inactive”. For the same compound, the Activity (Escherichia coli) was “inactive”, the Activity (Ralstonia solanacearum) was “inactive” and the Activity (Pseudomonas sp. [2]) was “inactive”. For the same compound, the Activity (Bacillus subtilis) was “inactive”, the IC50 (HeLa) was over 20 µM and the Activity (Staphylococcus aureus) was “inactive”.
`CS[C@@]1(Cc2c[nH]c3ccccc23)NC(=O)[C@@](SC)([C@@H](C)O)NC1=O` was tested, and the IC50 (HepG2) was over 20 µM, the Activity [1] was “inactive” and the Activity (Bacillus cereus) was “inactive”. For the same compound, the Activity (Escherichia coli) was “inactive”, the Activity (Ralstonia solanacearum) was “inactive” and the Activity (Pseudomonas sp. [2]) was “inactive”. For the same compound, the Activity (Bacillus subtilis) was “inactive”, the IC50 (HeLa) was over 20 µM and the Activity (Staphylococcus aureus) was “inactive”.
`C[C@@H](O)[C@@H]1OC(=O)[C@@H]2[C@H]3c4c[nH]c5cccc(c45)C[C@H]3C(C)(C)N2C1=O` was tested, and the Activity (Alternaria alternata) was “inactive”, the IC50 (HepG2) was over 20 µM and the MIC (Fusarium oxysporum) was 50 µg/mL (≈ 141 µM). The Activity [1] was “inactive”, the Activity (Bacillus cereus) was “inactive” and the Activity (Escherichia coli) was “inactive”. For the same compound, the Activity (Phytophthora capsici) was “inactive”, the Activity (Ralstonia solanacearum) was “inactive” and the Activity (Pseudomonas sp. [2]) was “inactive”. The Activity (Bacillus subtilis) was “inactive”, the IC50 (HeLa) was over 20 µM and the Activity (Staphylococcus aureus) was “inactive”.
With `CS[C@@H]1C(=O)N2[C@@H]3Nc4ccccc4[C@]3(c3c[nH]c4ccccc34)[C@@H](O)[C@@]2(SC)C(=O)N1C` the IC50 (HepG2) was over 20 µM, the Activity [1] was “inactive” and the Activity (Bacillus cereus) was “inactive”. The Activity (Escherichia coli) was “inactive”, the Activity (Ralstonia solanacearum) was “inactive” and the Activity (Pseudomonas sp. [2]) was “inactive”. The Activity (Bacillus subtilis) was “inactive”, the IC50 (HeLa) was over 20 µM and the Activity (Staphylococcus aureus) was “inactive”.
In the case of `O=C(O)c1ccc(O)c2c1Cc1cccn1-2`, the Activity (Alternaria alternata) is reported as “inactive”, the IC50 (HepG2) is reported as over 20 µM and the Activity (Fusarium oxysporum) is reported as “inactive”. The Activity [1] was “inactive”, the Activity (Bacillus cereus) was “inactive” and the Activity (Escherichia coli) was “inactive”. For the same compound, the Activity (Phytophthora capsici) was “inactive”, the Activity (Ralstonia solanacearum) was “inactive” and the Activity (Pseudomonas sp. [2]) was “inactive”. The Activity (Bacillus subtilis) was “inactive”, the IC50 (HeLa) was over 20 µM and the Activity (Staphylococcus aureus) was “inactive”.
`CN1C(=O)C(=O)N2C(=C[C@@]3(c4c[nH]c5ccccc45)c4ccccc4N[C@@H]23)C1=O` was tested, and the IC50 (HepG2) was over 20 µM, the Activity [1] was “inactive” and the Activity (Bacillus cereus) was “inactive”. For the same compound, the Activity (Escherichia coli) was “inactive”, the Activity (Ralstonia solanacearum) was “inactive” and the Activity (Pseudomonas sp. [2]) was “inactive”. For the same compound, the Activity (Bacillus subtilis) was “inactive”, the IC50 (HeLa) was over 20 µM and the Activity (Staphylococcus aureus) was “inactive”.
For `C[C@@H](O)[C@]12SS[C@@]3(C(=O)N1C)[C@H](O)[C@@]1(c4c[nH]c5ccccc45)c4ccccc4N[C@H]1N3C2=O`, the IC50 (HepG2) was 0.6 µM, the Activity [1] was “inactive” and the Activity (Bacillus cereus) was “inactive”. The Activity (Escherichia coli) was “inactive”, the Activity (Ralstonia solanacearum) was “inactive” and the Activity (Pseudomonas sp. [2]) was “inactive”. For the same compound, the Activity (Bacillus subtilis) was “inactive”, the IC50 (HeLa) was 0.42 µM and the Activity (Staphylococcus aureus) was “inactive”.
With `C[C@@H](O)[C@]12SS[C@@]3(C(=O)N1C)[C@H](O)C1([C@]45c6ccccc6N[C@H]4N4C(=O)[C@@]6([C@@H](C)O)SS[C@@]4(C(=O)N6C)[C@@H]5O)c4ccccc4N[C@H]1N3C2=O` (stereo not given in full) the IC50 (HepG2) was 0.37 µM, the Activity [1] was “inactive” and the Activity (Bacillus cereus) was “inactive”. The Activity (Escherichia coli) was “inactive”, the Activity (Ralstonia solanacearum) was “inactive” and the Activity (Pseudomonas sp. [2]) was “inactive”. The Activity (Bacillus subtilis) was “inactive”, the IC50 (HeLa) was 0.12 µM and the Activity (Staphylococcus aureus) was “inactive”.
For `C[C@H](O)[C@H]1NC(=O)[C@@H](Cc2c[nH]c3ccccc23)NC1=O`, the Activity (Alternaria alternata) was “inactive”, the Activity (Fusarium oxysporum) was “inactive” and the Activity (Phytophthora capsici) was “inactive”. For the same compound, the MIC (Bacillus subtilis; dose 100 µg/ml) was 25 µg/mL (≈ 87 µM).
With `C[C@@H](O)[C@@H]1NC(=O)[C@H](Cc2c[nH]c3ccccc23)NC1=O` the Activity (Alternaria alternata) was “inactive”, the IC50 (HepG2) was over 20 µM and the Activity (Fusarium oxysporum) was “inactive”. The Activity [1] was “inactive”, the Activity (Bacillus cereus) was “inactive” and the Activity (Escherichia coli) was “inactive”. For the same compound, the Activity (Phytophthora capsici) was “inactive”, the Activity (Ralstonia solanacearum) was “inactive” and the Activity (Pseudomonas sp. [2]) was “inactive”. The Activity (Bacillus subtilis) was “inactive”, the MIC (Pseudomonas sp. [3]) was 50 µg/mL (≈ 174 µM) and the IC50 (HeLa) was over 20 µM. For the same compound, the Activity (Staphylococcus aureus) was “inactive”.
